Patent US11987586B1 (TAKEDA PHARMACEUTICAL COMPANY LIMITED, priority 2022, dated 2024)

Experiments:
[1] = biological target: T1, human OX2 receptor (Homo sapiens, UniProt O43614); test: Measurement of orexin type 2 receptor agonist activity (calcium fluorescence, Fluo-4, FDSS); type: cell-based; conditions: 3 uM test compound; CHO cells expressing human OX2 receptor; DMSO = 0%, 10 nM orexin A (human) = 100%
T1 construct: expressed in transfected cells
T1 sequence (O43614 1-444): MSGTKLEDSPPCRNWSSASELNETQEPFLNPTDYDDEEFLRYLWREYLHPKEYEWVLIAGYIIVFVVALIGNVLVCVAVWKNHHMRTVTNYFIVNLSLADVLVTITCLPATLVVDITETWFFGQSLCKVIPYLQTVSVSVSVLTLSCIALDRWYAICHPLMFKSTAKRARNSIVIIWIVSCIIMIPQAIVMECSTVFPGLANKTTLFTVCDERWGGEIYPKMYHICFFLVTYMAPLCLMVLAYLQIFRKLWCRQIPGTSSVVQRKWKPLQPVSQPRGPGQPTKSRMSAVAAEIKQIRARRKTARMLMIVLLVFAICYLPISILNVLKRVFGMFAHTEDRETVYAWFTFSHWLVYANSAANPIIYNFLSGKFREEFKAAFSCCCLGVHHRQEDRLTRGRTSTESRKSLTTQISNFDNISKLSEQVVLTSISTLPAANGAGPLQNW
Method in brief: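 Agonist activity (%) was normalised to the response to 10 nM final human orexin A (100%) and to the DMSO vehicle (0%). The response was measured as the Fluo-4 calcium signal, read kinetically over 1 min 40 s after compound addition to Fluo-4/probenecid-loaded stable CHO-K1 clones expressing human OX2 (aa 1-444).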

[2] = tested on: cynomolgus monkeys; test: Evaluation of wake-promoting effects in cynomolgus monkeys (EEG, EMG, locomotor activity); type: in vivo, cynomolgus monkey; conditions: Macaca fascicularis, po, p.o., at zeitgeber time 12, 4 hours after administration, male cynomolgus monkeys, read-out: Wakefulness time (% of vehicle treatment) (Mean, n = 2-4)
Description: The wake-promoting effects were evaluated by measuring the electroencephalogram (EEG), electromyogram (EMG) and locomotor activity in cynomolgus monkeys. Under isoflurane anesthesia (0.5-5%, Pfizer Japan Inc., Tokyo, Japan), male cynomolgus monkeys (2-3 years old, Hamri Co., Ltd., Ibaraki, Japan) were surgically implanted with radio-telemetry transmitters (L03-F3, Data Sciences International Inc., MN, USA). The two EEG electrodes were stereotaxically positioned at the parietal area and secured to the cranium with stainless-steel screws in contact with the dura. Bilateral EMG electrodes were implanted into the back cervical muscles. After at least a 1-month recovery period in home cages, the monkeys were habituated to the recording chamber (an acrylic cage 60W×55D×75H (cm)) located in a soundproof and electrically shielded room by the time animals sleep sufficiently in the experimental room. Cortical EEG, EMG and locomotor activity were recorded using the telemetry system (PhysioTel Digital telemetry platform, Data Sciences International Inc.). The signals were semi-automatically scored in 20-second epochs by a sleep scoring system (SleepSign, Kissei Comtec Co., Ltd., Nagano, Japan).
Test compound (1 or 3 mg/kg) suspended in 0.5% methylcellulose aqueous solution or vehicle (i.e., 0.5% methylcellulose aqueous solution) was administered orally (p.o.) to monkeys at zeitgeber time 12 in a volume of 5 mL/kg body weight with a pretest-posttest design (n=2-4), and then EEG, EMG and locomotor activity were recorded for 4 hours after administration. The time spent in wakefulness for 4 hours after administration (% of vehicle treatment) was calculated by using SleepSign.

Compound	OX2R agonist activity (3 uM, %) [1]	response vs control in vivo at 3 mg/kg ([2]; 3 mg/kg)	response vs control in vivo at 1 mg/kg [2]
CCS(=O)(=O)N[C@H]1C[C@H]2CN(c3noc4cccc(-c5c(F)cccc5F)c34)C(=O)N2C1 [Example 1, N-{(6S,7aS)-2-[4-(2,6-Difluorophenyl)-1,2-benzoxazol-3-yl]-3-oxohexahydro-1H-pyrrolo[1,2-c]imidazol-6-yl}ethanesulfonamide]	104%	383%	
CS(=O)(=O)N[C@@H]1Cn2c(cn(-c3noc4cccc(-c5c(F)cc(F)cc5F)c34)c2=O)C1(F)F [Example 16, N-{(6R)-7,7-Difluoro-3-oxo-2-[4-(2,4,6-trifluorophenyl)-1,2-benzoxazol-3-yl]-2,5,6,7-tetrahydro-3H-pyrrolo[1,2-c]imidazol-6-yl}methanesulfonamide]	107%		546%
CCS(=O)(=O)N[C@@H]1CN2C(=O)N(c3noc4cccc(-c5c(F)cc(F)cc5F)c34)C[C@@H]2C1(F)F [Example 24, N-{(6R,7aR)-7,7-Difluoro-3-oxo-2-[4-(2,4,6-trifluorophenyl)-1,2-benzoxazol-3-yl]hexahydro-1H-pyrrolo[1,2-c]imidazol-6-yl}ethanesulfonamide]	104%		393%
CCS(=O)(=O)N[C@H]1C[C@H]2CN(c3noc4cc(Cl)cc(-c5c(F)cccc5F)c34)C(=O)N2C1 [Example 50, N-{(6S,7aS)-2-[6-Chloro-4-(2,6-difluorophenyl)-1,2-benzoxazol-3-yl]-3-oxohexahydro-1H-pyrrolo[1,2-c]imidazol-6-yl}ethanesulfonamide]	103%		176%
CS(=O)(=O)N[C@@H]1CN2C(=O)N(c3noc4cccc(-c5c(F)cc(F)cc5F)c34)C[C@@H]2C1(F)F [Example 71, N-{(6R,7aR)-7,7-Difluoro-3-oxo-2-[4-(2,4,6-trifluorophenyl)-1,2-benzoxazol-3-yl]hexahydro-1H-pyrrolo[1,2-c]imidazol-6-yl}methanesulfonamide]	97%		703%
CS(=O)(=O)N[C@@H]1Cn2c(cn(-c3noc4ccc(F)c(-c5c(F)cc(F)cc5F)c34)c2=O)C1(F)F [Example 77, N-{(6R)-7,7-Difluoro-2-[5-fluoro-4-(2,4,6-trifluorophenyl)-1,2-benzoxazol-3-yl]-3-oxo-2,5,6,7-tetrahydro-3H-pyrrolo[1,2-c]imidazol-6-yl}methanesulfonamide]	100%		645%
CS(=O)(=O)N[C@@H]1Cn2c(cn(-c3noc4cc(F)c(F)c(-c5c(F)cccc5F)c34)c2=O)C1(F)F [Example 142, N-{(6R)-2-[4-(2,6-difluorophenyl)-5,6-difluoro-1,2-benzoxazol-3-yl]-7,7-difluoro-3-oxo-2,5,6,7-tetrahydro-3H-pyrrolo[1,2-c]imidazol-6-yl}methanesulfonamide]	99%		690%
CS(=O)(=O)N[C@@H]1CN2C(=O)N(c3noc4cc(F)cc(-c5c(F)cc(F)cc5F)c34)C[C@@H]2C1(F)F [Example 149, N-{(6R,7aR)-7,7-Difluoro-2-[6-fluoro-4-(2,4,6-trifluorophenyl)-1,2-benzoxazol-3-yl]-3-oxohexahydro-1H-pyrrolo[1,2-c]imidazol-6-yl}methanesulfonamide]	95%		731%
CS(=O)(=O)N[C@@H]1CN2C(=O)N(c3noc4cccc(-c5c(F)cc(F)cc5F)c34)CC[C@@H]2C1(F)F [Example 213, N-{(4aR,6R)-5,5-Difluoro-1-oxo-2-[4-(2,4,6-trifluorophenyl)-1,2-benzoxazol-3-yl]octahydropyrrolo[1,2-c]pyrimidin-6-yl}methanesulfonamide]	104%		447%
CS(=O)(=O)N[C@@H]1CN2C(=O)N(c3noc4cc(F)c(F)c(-c5c(F)cc(F)cc5F)c34)CC[C@@H]2C1(F)F [Example 243, N-{(4aR,6R)-2-[5,6-difluoro-4-(2,4,6-trifluorophenyl)-1,2-benzoxazol-3-yl]-5,5-difluoro-1-oxooctahydropyrrolo[1,2-c]pyrimidin-6-yl}methanesulfonamide]	109%		618%
CCS(=O)(=O)N[C@@H]1CN2C(=O)N(c3noc4cccc(-c5ccsc5)c34)CC[C@@H]2C1(F)F [Example 326, N-{(4aR,6R)-5,5-difluoro-1-oxo-2-[4-(thiophen-3-yl)-1,2-benzoxazol-3-yl]octahydropyrrolo[1,2-c]pyrimidin-6-yl}ethanesulfonamide]	99%		
CCS(=O)(=O)N[C@@H]1CN2C(=O)N(c3noc4cccc(-c5ccccc5Cl)c34)CC[C@@H]2C1(F)F [Example 327, N-{(4aR,6R)-2-[4-(2-chlorophenyl)-1,2-benzoxazol-3-yl]-5,5-difluoro-1-oxooctahydropyrrolo[1,2-c]pyrimidin-6-yl}ethanesulfonamide]	118%		
CCS(=O)(=O)N[C@@H]1CN2C(=O)N(c3noc4cccc(-c5cccs5)c34)CC[C@@H]2C1(F)F [Example 328, N-{(4aR,6R)-5,5-difluoro-1-oxo-2-[4-(thiophen-2-yl)-1,2-benzoxazol-3-yl]octahydropyrrolo[1,2-c]pyrimidin-6-yl}ethanesulfonamide]	103%		
CCS(=O)(=O)N[C@@H]1CN2C(=O)N(c3noc4cccc(-c5ccc(F)cc5Cl)c34)CC[C@@H]2C1(F)F [Example 329, N-{(4aR,6R)-2-[4-(2-chloro-4-fluorophenyl)-1,2-benzoxazol-3-yl]-5,5-difluoro-1-oxooctahydropyrrolo[1,2-c]pyrimidin-6-yl}ethanesulfonamide]	101%		
CCS(=O)(=O)N[C@@H]1CN2C(=O)N(c3noc4cccc(-c5nccs5)c34)CC[C@@H]2C1(F)F [Example 330, N-{(4aR,6R)-5,5-difluoro-1-oxo-2-[4-(1,3-thiazol-2-yl)-1,2-benzoxazol-3-yl]octahydropyrrolo[1,2-c]pyrimidin-6-yl}ethanesulfonamide]	109%		
CCS(=O)(=O)N[C@@H]1CN2C(=O)N(c3noc4cccc(C5CCC5)c34)CC[C@@H]2C1(F)F [Example 331, N-[(4aR,6R)-2-(4-cyclobutyl-1,2-benzoxazol-3-yl)-5,5-difluoro-1-oxooctahydropyrrolo[1,2-c]pyrimidin-6-yl]ethanesulfonamide]	45%		
CCS(=O)(=O)N[C@@H]1CN2C(=O)N(c3noc4cccc(-c5sccc5C)c34)CC[C@@H]2C1(F)F [Example 332, N-{(4aR,6R)-5,5-difluoro-2-[4-(3-methylthiophen-2-yl)-1,2-benzoxazol-3-yl]-1-oxooctahydropyrrolo[1,2-c]pyrimidin-6-yl}ethanesulfonamide]	106%		
CCS(=O)(=O)N[C@@H]1CN2C(=O)N(c3noc4cccc(N5CCCCC5)c34)CC[C@@H]2C1(F)F [Example 333, N-{(4aR,6R)-5,5-difluoro-1-oxo-2-[4-(piperidin-1-yl)-1,2-benzoxazol-3-yl]octahydropyrrolo[1,2-c]pyrimidin-6-yl}ethanesulfonamide]	68%		
CCS(=O)(=O)N[C@@H]1CN2C(=O)N(c3noc4cccc(-c5ccccc5F)c34)CC[C@@H]2C1(F)F [Example 334, N-{(4aR,6R)-5,5-difluoro-2-[4-(2-fluorophenyl)-1,2-benzoxazol-3-yl]-1-oxooctahydropyrrolo[1,2-c]pyrimidin-6-yl}ethanesulfonamide]	111%		
CCS(=O)(=O)N[C@@H]1CN2C(=O)N(c3noc4cccc(-c5ncc(F)cc5C)c34)CC[C@@H]2C1(F)F [Example 335, N-{(4aR,6R)-5,5-difluoro-2-[4-(5-fluoro-3-methylpyridin-2-yl)-1,2-benzoxazol-3-yl]-1-oxooctahydropyrrolo[1,2-c]pyrimidin-6-yl}ethanesulfonamide]	101%		
